The text below walks through data of patent publication US8008506B2, “Indazole compounds” (priority 2008, dated 2011).

What is called solubility is the dissolved amount per volume that the medium holds.

Values after ≈ are worked out from the molar mass of the structure shown.

Series [1] can be described thus: Test Example 11: solubility in hydrochloric acid buffer solution at pH 1.2. The format is physicochemical. As to conditions: simulated gastric fluid, thermodynamic from solid; hydrochloric acid buffer solution at pH 1.2, 37° C., one hour, 1 mg/mL nominal. How it is done:
Test on Solubility in Hydrochloric Acid Buffer Solution at pH 1.2
A test compound is precisely weighed to 500 μg, and a hydrochloric acid buffer solution at pH 1.2 is added thereto to a concentration of 1 mg/mL. The solution is shaken at 37° C. for one hour. After the shaking, the entire amount of the solution is transferred into a filter tube, and the solution is filtered by centrifugation. The filtrate is analyzed by HPLC, and the solubility of the test compound is determined by dividing the peak area value of the filtrate by the peak area value of the standard solution.
The standard solution is prepared by precisely weighing 500 μg of the test compound, and dissolving the test compound in DMSO to a concentration of 1 mg/mL.
YMC-Pack C18 (4.6 mm×150 mm) (manufactured by YMC Co., Ltd.) is used as a separating column. The detection is performed with UV-254 nm. Elution is carried out at a flow rate of 1 ml/min, using solution A=water [containing 0.1% (v/v) acetic acid] and solution B=acetonitrile as the solvents, under the conditions in which a linear gradient of the solution B is run from 5 to 98% (v/v) from zero minute to 20 minute, subsequently solution B is eluted at 98% up to 25 minute, and the solution B is eluted at 5% from 25.01 minute to […].

Series [2] is described as follows: Test Example 14: stability in phosphate buffer solution at pH 6.8. In kind it is physicochemical. The protocol: (§1) A test compound is prepared in pure water to be in the saturated state. This solution is shaken for one hour at room temperature. After the shaking, the entire amount of the solution is transferred into a filter tube, and the solution is filtered by centrifugation. The filtrate is analyzed by HPLC immediately after filtration, 24 hours after filtration, and 48 hours after filtration. The stability of the test compound is determined using a calibration curve, based on the peak area value.
Test on Stability in Phosphate Buffer Solution at pH 6.8
The stability of a test compound is determined by performing the same test as that performed in Test Example 13, except that the pure water is changed to a phosphate buffer solution at pH 6.8.

Series [3] is described as follows: Test Example 13: stability in pure water. In kind it is physicochemical. The protocol: Test on Stability in Pure Water
as §1
A standard solution is prepared by precisely weighing each test compound, and preparing a solution that sufficiently dissolves in pure water. The calibration curve is produced by assigning the concentration of the standard solution to the horizontal axis, and assigning the HPLC area peak at the concentration to the vertical axis.
YMC-Pack C18 (4.6 mm×150 mm) (manufactured by YMC Co., Ltd.) is used as a separating column. The detection is performed with UV-254 nm. The temperature in the column is set at 40° C. Elution is carried out at a flow rate of 1 ml/min, using solution A=water [containing 0.1% (v/v) acetic acid] and solution B=acetonitrile as the solvents, under the conditions in which a linear gradient of the solution B is run from 5 to 98% (v/v) from zero minute to 20 minute, subsequently solution B is eluted at 98% up to 25 minute, and the solution B is eluted at 5% from 25.01 minute to 35 minute.

Series [4] addresses T1, human β1 adrenergic receptor (Homo sapiens, UniProt P08588).
T1 construct: expressed in transfected cells; host or cells: CHO (Chinese Hamster Ovary) cells, pcDNA3
Put plainly: Test Example 2-A: human β1 adrenergic receptor agonist activity (method of Test Example 1-A). In kind it is cell-based. As to conditions: Table 1; for β1 receptor EC50: Test Example 2-A; for β1 receptor I.A.: maximum response to isoproterenol taken as 100%. The protocol:
(§2) The measurement of human β3 adrenergic receptor agonist activity is carried out using CHO (Chinese Hamster Ovary) cells transfected with pcDNA3 (manufactured by Invitrogen, Inc.) to which human β3 gene has been inserted. […] This human β3 cDNA fragment is used as a probe, and the full length human β3 gene is obtained from a human genomic library (manufactured by Clontech Laboratories, Inc.). The above cells are cultured in Ham's F-12 medium containing 10% fetal bovine serum and 400 μg/ml geneticin (manufactured by Invitrogen, Inc.). These cells are seeded on a 24-well plate to a concentration of 1×10^5 cells/well, and after being cultured for about 20 hours, the cells are left to stand in serum-free Ham's F-12 medium for 2 hours. A test compound is initially dissolved in DMSO, and then is diluted stepwise with Ham's F-12 containing 20 mmol/L HEPES, 1 mmol/L isobutylmethylxanthine, and 1 mmol/L ascorbic acid. The dilution is added to the cells. After the cells are cultured for 30 minutes, and then the medium is removed, followed by addition of 0.1 ml of 1 N NaOH to the cells. The cells are left to stand for 20 minutes, and then are added with 0.1 ml of 1 N acetic acid and are stirred. The resulting cell lysate is centrifuged, and then is subjected to quantification of cAMP with cAMP EIA kit (manufactured by Cayman Chemical Co.). […] Measurement of Human β1 Adrenergic Receptor Agonist Activity

The target in series [5] is T2, human β2 adrenergic receptor (Homo sapiens, UniProt P07550).
T2 construct: expressed in transfected cells; host or cells: CHO (Chinese Hamster Ovary) cells, pcDNA3
Put plainly: Test Example 3-A: human β2 adrenergic receptor agonist activity (method of Test Example 1-A). In kind it is cell-based. The following applies: Table 1; for β2 receptor EC50: Test Example 3-A; for β2 receptor I.A.: maximum response to isoproterenol taken as 100%. How it is done: [Worded in the source for another target; this target is reported under the same test.] as §2, with “β2” for “β1”

T1 sequence (P08588 whole entry): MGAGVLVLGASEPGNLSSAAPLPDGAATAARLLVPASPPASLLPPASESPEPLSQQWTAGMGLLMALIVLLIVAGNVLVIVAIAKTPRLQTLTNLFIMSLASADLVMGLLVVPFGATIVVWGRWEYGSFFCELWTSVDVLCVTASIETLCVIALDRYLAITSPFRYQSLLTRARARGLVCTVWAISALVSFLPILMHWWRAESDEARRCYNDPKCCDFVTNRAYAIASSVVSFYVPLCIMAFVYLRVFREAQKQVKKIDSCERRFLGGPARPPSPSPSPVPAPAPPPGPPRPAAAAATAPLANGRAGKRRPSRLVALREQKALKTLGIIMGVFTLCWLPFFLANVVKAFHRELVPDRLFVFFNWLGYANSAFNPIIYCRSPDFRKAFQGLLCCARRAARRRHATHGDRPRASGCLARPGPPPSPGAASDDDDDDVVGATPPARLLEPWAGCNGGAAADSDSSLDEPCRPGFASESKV
T2 sequence (P07550 whole entry): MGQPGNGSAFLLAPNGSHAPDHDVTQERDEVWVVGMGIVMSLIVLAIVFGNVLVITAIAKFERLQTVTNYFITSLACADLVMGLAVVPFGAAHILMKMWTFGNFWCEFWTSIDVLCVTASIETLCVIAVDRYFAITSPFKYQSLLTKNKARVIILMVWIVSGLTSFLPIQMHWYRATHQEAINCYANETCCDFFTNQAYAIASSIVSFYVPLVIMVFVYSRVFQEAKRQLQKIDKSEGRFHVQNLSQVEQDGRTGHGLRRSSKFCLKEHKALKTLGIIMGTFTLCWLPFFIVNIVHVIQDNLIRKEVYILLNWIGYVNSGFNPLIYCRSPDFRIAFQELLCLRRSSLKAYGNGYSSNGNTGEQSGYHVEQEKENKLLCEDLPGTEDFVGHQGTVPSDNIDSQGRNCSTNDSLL

Turning to `CC(C)c1n[nH]c2cc(OCCNC[C@H](O)c3cccc(NS(C)(=O)=O)c3)ccc12` [Example 1, (R)-N-(3-(1-hydroxy-2-(2-(3-isopropylindazol-6-yloxy)ethylamino)ethyl)phenyl)methanesulfonamide], in series [1], the solubility at 1 h is at least 1000 µg/mL. The HPLC area percent is listed as 99.9% in series [2] (after 24 hours); 100% in series [2] (after 48 hours); 99.8% in series [2] (immediately after filtration); 99.8% in series [3] (after 24 hours); 99.8% in series [3] (after 48 hours); 100% in series [3] (immediately after filtration).

As for `CCc1n[nH]c2cc(OCCNC[C@H](O)c3cccc(NS(C)(=O)=O)c3)ccc12` [Example 2, (R)-N-(3-(1-hydroxy-2-(2-(3-ethylindazol-6-yloxy)ethylamino)ethyl)phenyl)methanesulfonamide], the solubility at 1 h in series [1] is at least 1000 µg/mL. The “β1 receptor EC50” value in series [4] is on record as “a)”. In addition, the “β1 receptor I.A.” value in series [4] is 8.1%. Also, in series [5], the “β2 receptor EC50” value is on record as “a)”. Also, the “β2 receptor I.A.” value in series [5] was 3.0%. Further, the HPLC area percent in series [2] (after 24 hours), in series [2] (after 48 hours), in series [2] (immediately after filtration), in series [3] (after 24 hours), in series [3] (after 48 hours) and in series [3] (immediately after filtration) was 98.2% in each case.

As for `CS(=O)(=O)Nc1cccc([C@@H](O)CNCCOc2ccc3c(C(F)(F)F)n[nH]c3c2)c1` [Example 4, (R)-N-(3-(1-hydroxy-2-(2-(3-trifluoromethylindazol-6-yloxy)ethylamino)ethyl)phenyl)methanesulfonamide], the solubility at 1 h in series [1] is 963 µg/mL (≈ 2100 µM). Besides, the HPLC area percent turned out to be 99.6% in series [2] (after 24 hours); 99.6% in series [2] (after 48 hours); 99.6% in series [2] (immediately after filtration); 98.7% in series [3] (after 24 hours); 98.6% in series [3] (after 48 hours); 98.7% in series [3] (immediately after filtration).

`CN(C)C(=O)CCc1n[nH]c2cc(OCCNC[C@H](O)c3cccc(NS(C)(=O)=O)c3)ccc12` [Example 5, (R)-3-(6-(2-(2-hydroxy-2-(3-(methylsulfonamido)phenyl)ethylamino)ethoxy)-indazol-3-yl)-N,N-dimethylpropanamide] yielded a solubility at 1 h in series [1] of at least 1000 µg/mL. In series [4], the “β1 receptor EC50” value is on record as “a)” and the “β1 receptor I.A.” value amounted to 3.3%. Besides, in series [5], the “β2 receptor EC50” value was “a)” and the “β2 receptor I.A.” value was found to be 3.2%.

Molecule `COCc1n[nH]c2cc(OCCNC[C@H](O)c3cccc(NS(C)(=O)=O)c3)ccc12` [Example 6, (R)-N-(3-(1-hydroxy-2-(2-(3-methoxymethylindazol-6-yloxy)ethylamino)ethyl)phenyl)methanesulfonamide] displayed a solubility at 1 h in series [1] of at least 1000 µg/mL. Besides, in series [4], the “β1 receptor EC50” value is on record as “a)” and the “β1 receptor I.A.” value is recorded as 3.3%. Further, in series [5], the “β2 receptor EC50” value was “a)” and the “β2 receptor I.A.” value came to 7.6%.
